# From US5494907A, “11-β substituted-19-nor steroids” (Roussel UCLAF, priority 1993, dated 1996)
# Molecular target: T1, hER (recombinant human estrogen receptor) (Homo sapiens, UniProt P03372)
# T1 construct: made in house; host or cells: SF9 insect cells, recombinant baculovirus
# T1 sequence (P03372 1-595): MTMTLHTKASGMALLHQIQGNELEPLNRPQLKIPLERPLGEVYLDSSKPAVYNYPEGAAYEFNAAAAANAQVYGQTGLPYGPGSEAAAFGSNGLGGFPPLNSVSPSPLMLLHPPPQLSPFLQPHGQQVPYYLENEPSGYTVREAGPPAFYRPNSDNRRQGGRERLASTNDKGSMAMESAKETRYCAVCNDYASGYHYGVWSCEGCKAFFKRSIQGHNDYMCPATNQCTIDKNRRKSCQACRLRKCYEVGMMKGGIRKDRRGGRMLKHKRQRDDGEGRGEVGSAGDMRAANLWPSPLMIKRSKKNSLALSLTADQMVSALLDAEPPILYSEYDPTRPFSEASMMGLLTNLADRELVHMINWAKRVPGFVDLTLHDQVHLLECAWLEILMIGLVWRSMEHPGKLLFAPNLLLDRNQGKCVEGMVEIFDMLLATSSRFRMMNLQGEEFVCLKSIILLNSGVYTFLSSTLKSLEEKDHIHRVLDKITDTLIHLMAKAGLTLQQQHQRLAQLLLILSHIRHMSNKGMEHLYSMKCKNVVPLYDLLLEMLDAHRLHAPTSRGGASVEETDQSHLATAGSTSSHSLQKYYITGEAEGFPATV
# Test: Relative bond affinity (RBA) on recombinant human estrogen receptor, displacement of tritiated estradiol
# Type: binding
# Conditions: for RBA hER: Estradiol = 100, 0° C., 24 hours; for affinity for the estrogen receptor (in words): conclusion in words
# Text: 1--Activity on the hormonal receptors using either the natural hormonal receptor of a rat (AR), or the recombinant human receptor (PR, GR and ER).
# A supernatant of SF9 cells containing the recombinant human estrogen receptor was obtained by the process described above for the progesterone receptor using the cDNA fragment described in the HEGO expression vector by TORA et al. (EMBO Journal (1989), Vol. 8 N° 7, pp. 1981-1986), containing the region coding for the human estrogen receptor of "wild type" with a glycine in position 400. The cells were lysed in the lysis buffer (1). The supernatant was incubated at 0° C. for 24 hours with a constant concentration (T) of tritiated estradiol in the presence of increasing concentrations either of unlabelled estradiol (0-1000×10^-9 M), or of the unlabelled product under test (1 to 25000×10^-9 M). The concentration of bound tritiated estradiol (B) was then measured in each incubate by the technique of adsorption with carbon dextran.
# Calculation of the relative bond affinity (RBA).
# The following 2 curves were traced: percentage of bound tritiated hormone B/BO as a function of the logarithm of the concentration of unlabelled reference hormone or as a function of the logarithm of the concentration of the unlabelled product under test.
# The straight line of the following equation was determined:
# BO=Concentration of bound tritiated hormone in the absence of any unlabelled product,
# B=Concentration of bound tritiated hormone in the presence of a concentration X of unlabelled product,
# B min=Concentration of bound tritiated hormone in the presence of a large excess of cold reference hormone (500 nM). The intersections of the straight line I50 and the curves allowed the evaluation of the concentrations of unlabelled reference hormone (CH) and of the unlabelled product under test (CX) which inhibited by 50% the specific binding of the tritiated hormone on the receptor.
# The relative bond affinity (RBA) of the product under test was determined by the equation:
# The RBA's of the reference products estradiol, progesterone, dexamethasone and testosterone were arbitrarily taken to be equal to 100.
SMILES,RBA hER,affinity for the estrogen receptor (in words)
"CN(CC(F)(F)C(F)(F)C(F)(F)F)S(=O)(=O)CCCCCOc1ccc([C@H]2C[C@]3(C)[C@@H](O)CC[C@H]3[C@@H]3CCc4cc(O)ccc4[C@H]32)cc1 [Example 8, 5-[4-(Δ1,3,5(10)-estratrien-3,17β-diol-11βyl)-Phenoxy]-N-(2,2,3,3,4,4,4-heptafluorobutyl)-N-methyl-pentanesulfonamide]",19,marked affinity
"CCCCNS(=O)(=O)CCCCCOc1ccc([C@H]2C[C@]3(C)[C@@H](O)CC[C@H]3[C@@H]3CCc4cc(O)ccc4[C@H]32)cc1 [Example 2, N-butyl-5-[4-(Δ1,3,5(10)-estratrien-3,17β-diol-11β-yl)phenoxy]-pentanesulfonamide]",21,marked affinity
"CCCCN(C)S(=O)(=O)CCCCCOc1ccc([C@H]2C[C@]3(C)[C@@H](O)CC[C@H]3[C@@H]3CCc4cc(O)ccc4[C@H]32)cc1 [Example 7, N-butyl-5-[4-(Δ1,3,5(10)-estratrien-3,17β-diol-11β-yl)phenoxy]-N-methyl-pentanesulfonamide]",4,–
